Three compounds from ChEMBL document CHEMBL3352126, “Bahamaolide A from the marine-derived Streptomyces sp. CNQ343 inhibits isocitrate lyase in Candida albicans” (Bioorg Med Chem Lett, 2014) can be followed below.

For one test, the target named is Isocitrate lyase (Candida albicans, UniProt Q9P8Q7). The test is described as follows: Inhibition of Candida albicans ATCC 10231 isocitrate lyase.
For test [1], the system named is Candida albicans. The test is described as follows: Antifungal activity against Candida albicans SC5314 in YNB broth containing 2% glucose as sole carbon source after 72 hrs by broth dilution assay. In kind it is functional. The settings on record: SC5314, 72 h.
For test [2], the system named is Candida albicans. The test is described as follows: Antifungal activity against Candida albicans ATCC 10231 in YNB broth containing 2% glucose as sole carbon source after 72 hrs by broth dilution assay. Type of test: functional. The settings on record: ATCC 10231, 72 h. A general note: In broth dilution the organism is exposed to a series of concentrations in liquid medium.

The subject of test [3] is Candida albicans. Briefly: Antifungal activity against Candida albicans ATCC 10259 in YNB broth containing 2% glucose as sole carbon source after 72 hrs by broth dilution assay. In kind it is functional. The settings on record: ATCC 10259, 72 h.
In test [4] the test system is Candida albicans. Briefly: Antifungal activity against Candida albicans ATCC 11006 in YNB broth containing 2% glucose as sole carbon source after 72 hrs by broth dilution assay. In kind it is functional. The settings on record: ATCC 11006, 72 h.
For test [5], the system named is Candida albicans. The test is described as follows: Antifungal activity against Candida albicans ATCC 18804 in YNB broth containing 2% glucose as sole carbon source after 72 hrs by broth dilution assay. The settings on record: ATCC 18804, 72 h. Type of test: functional.
Test [6] has as its system Candida albicans. The test is described as follows: Antifungal activity against Candida albicans SC5314 in YNB broth containing 2% potassium acetate as sole carbon source after 72 hrs by broth dilution assay. In kind it is functional. The settings on record: SC5314, 72 h.
Test [7] concerns Candida albicans. The test is described as follows: Antifungal activity against Candida albicans ATCC 10231 in YNB broth containing 2% potassium acetate as sole carbon source after 72 hrs by broth dilution assay. In kind it is functional. The settings on record: ATCC 10231, 72 h.
The test system of test [8] is Candida albicans. The test is described as follows: Antifungal activity against Candida albicans ATCC 10259 in YNB broth containing 2% potassium acetate as sole carbon source after 72 hrs by broth dilution assay. In kind it is functional. The settings on record: ATCC 10259, 72 h.
Test [9] has as its system Candida albicans. Briefly: Antifungal activity against Candida albicans ATCC 11006 in YNB broth containing 2% potassium acetate as sole carbon source after 72 hrs by broth dilution assay. In kind it is functional. The settings on record: ATCC 11006, 72 h.
Test [10] relates to Candida albicans. The test is described as follows: Antifungal activity against Candida albicans ATCC 18804 in YNB broth containing 2% potassium acetate as sole carbon source after 72 hrs by broth dilution assay. In kind it is functional. The settings on record: ATCC 18804, 72 h.
In test [11] the test system is Candida albicans. Briefly: Antifungal activity against Candida albicans SC5314 in YNB broth containing 2% glucose as sole carbon source at 3.12 ug/mL after 72 hrs by broth dilution assay. In kind it is functional, organism-based.
In test [12] the test system is Candida albicans. Briefly: Antifungal activity against Candida albicans MRC10 (deltaicl) in YNB broth containing 2% potassium acetate as sole carbon source at 3.12 ug/mL after 72 hrs by broth dilution assay. Type of test: functional, organism-based.
Test [13] relates to Candida albicans. Briefly: Antifungal activity against Candida albicans Candida albicans MRC11 (deltaicl + ICL) in YNB broth containing 2% potassium acetate as sole carbon source at 3.12 ug/mL after 72 hrs by broth dilution assay. In kind it is functional, organism-based.
Test [14] deals with Candida albicans. Briefly: Inhibition of ICL mRNA expression in Candida albicans SC5314 in YNB broth containing 2% potassium acetate as sole carbon source at 3.12 ug/mL after 48 hrs by real time RT-PCR method. In kind it is functional. A general note: Real-time PCR tracks product formation cycle by cycle.
The test system of test [15] is Candida albicans. The test is described as follows: Inhibition of ICL mRNA expression in Candida albicans MRC10 (deltaicl) in YNB broth containing 2% potassium acetate as sole carbon source at 3.12 ug/mL after 48 hrs by real time RT-PCR method. Type of test: functional, organism-based.
Test [16] concerns Candida albicans. Briefly: Inhibition of ICL mRNA expression in Candida albicans MRC11 (deltaicl + ICL) in YNB broth containing 2% potassium acetate as sole carbon source at 3.12 ug/mL after 48 hrs by real time RT-PCR method. Type of test: functional, organism-based.

Each structure is given as a SMILES string. Values after ≈ are worked out from the molar mass of the structure shown. Active and inactive are the calls of the source. No cut-off for these calls is given here.

Usually IC50 stands for the concentration that gives 50% inhibition. Higher therefore signals lower potency. The MIC is the least concentration at which growth counts as inhibited. Lower therefore signals a more susceptible organism.

Sequence of Isocitrate lyase (Q9P8Q7 whole entry): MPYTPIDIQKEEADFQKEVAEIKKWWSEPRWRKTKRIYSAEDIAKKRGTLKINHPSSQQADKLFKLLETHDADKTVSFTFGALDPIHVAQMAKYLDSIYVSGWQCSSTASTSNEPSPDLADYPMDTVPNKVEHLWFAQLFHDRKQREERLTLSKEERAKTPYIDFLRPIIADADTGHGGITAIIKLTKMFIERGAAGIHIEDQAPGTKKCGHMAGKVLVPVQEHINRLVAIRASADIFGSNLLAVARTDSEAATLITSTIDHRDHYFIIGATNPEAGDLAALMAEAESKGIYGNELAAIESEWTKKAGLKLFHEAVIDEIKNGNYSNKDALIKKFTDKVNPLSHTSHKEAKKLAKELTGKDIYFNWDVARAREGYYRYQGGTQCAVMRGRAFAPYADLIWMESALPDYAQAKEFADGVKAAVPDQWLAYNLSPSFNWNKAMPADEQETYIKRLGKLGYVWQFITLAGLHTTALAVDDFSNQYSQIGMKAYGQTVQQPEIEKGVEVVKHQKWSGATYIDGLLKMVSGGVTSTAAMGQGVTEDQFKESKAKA

With `O=C(O)CC[N+](=O)[O-]`, at Isocitrate lyase, the IC50 came out at 17.3 µM. This lies in the double-digit micromolar range.

Consider `C[C@@H]1[C@H](O)[C@@H](C)/C=C/C=C/C=C/C=C/C=C/C=C/C=C/[C@H](O[C@@H]2O[C@H](C)[C@@H](O)[C@H](N)[C@@H]2O)C[C@@H]2O[C@](O)(C[C@@H](O)C[C@@H](O)[C@H](O)CC[C@@H](O)C[C@@H](O)CC(=O)O[C@H]1C)C[C@H](O)[C@H]2C(=O)O` [AMPHOTERICIN B], for which the MIC against Candida albicans [1] was found to be 1.56 µg/mL (≈ 1.69 µM); in the test on Candida albicans [2], 1.56 µg/mL (≈ 1.69 µM); in the test on Candida albicans [3], 3.12 µg/mL (≈ 3.38 µM); with Candida albicans [4] it was 1.56 µg/mL (≈ 1.69 µM); against Candida albicans [5], 1.56 µg/mL (≈ 1.69 µM); against Candida albicans [6] it was 0.39 µg/mL (≈ 0.422 µM). For the same compound, the minimum inhibitory concentration (MIC) against Candida albicans [7] amounted to 0.78 µg/mL (≈ 0.844 µM); in the test with Candida albicans [8], 1.56 µg/mL (≈ 1.69 µM); against Candida albicans [9], 0.78 µg/mL (≈ 0.844 µM); against Candida albicans [10] it was 0.78 µg/mL (≈ 0.844 µM).

As for `CC(C)[C@@H]1OC(=O)/C=C/C=C/C=C/C=C/C=C/C=C/C[C@@H](O)C[C@H](O)C[C@H](O)C[C@H](O)C[C@@H](O)C[C@H](O)C[C@@H](O)C[C@@H](O)C[C@@H](O)CC[C@@H]1C` [BAHAMAOLIDE A], the concentration for half-maximal inhibition (IC50) against Isocitrate lyase worked out at 11.8 µM. Also, the MIC came to 25 µg/mL (≈ 35.3 µM) against Candida albicans [1]; 25 µg/mL (≈ 35.3 µM) against Candida albicans [2]; 25 µg/mL (≈ 35.3 µM) with Candida albicans [3]; 12.5 µg/mL (≈ 17.6 µM) against Candida albicans [4]; 25 µg/mL (≈ 35.3 µM) in the test on Candida albicans [5]; 3.12 µg/mL (≈ 4.4 µM) against Candida albicans [6]. Besides, the MIC is 3.12 µg/mL (≈ 4.4 µM) with Candida albicans [7], 3.12 µg/mL (≈ 4.4 µM) with Candida albicans [8], 1.56 µg/mL (≈ 2.2 µM) against Candida albicans [9] and 3.12 µg/mL (≈ 4.4 µM) with Candida albicans [10]. Further, the “growth inhibition (GI)” value in the test with Candida albicans [11] is “inactive”. In addition, the “growth inhibition (GI)” value with Candida albicans [12] and in the test with Candida albicans [13] was “Active” throughout. Moreover, the “fold change (FC)” value in the test with Candida albicans [14] is 5. Also, the inhibition entry in the test on Candida albicans [15] and in the test on Candida albicans [16] was “Active” throughout.
